From the NIST ThermoML archive (doi:10.1021/je0504358)

Conditions: Liquid, Twin ebulliometer

O=C1C=CCCC1 [2-cyclohexen-1-one]
Conditions | vapor or sublimation pressure [kPa]
350.4 K | 4.147
353.66 K | 4.786
357.56 K | 5.662
361.48 K | 6.709
366.16 K | 8.095
370.32 K | 9.581
374.97 K | 11.46
379 K | 13.31
380.5 K | 14.06
386.63 K | 17.53
388.4 K | 18.68
391.77 K | 20.95
397.16 K | 25.2
404.53 K | 32.03
407.95 K | 35.56
410.86 K | 39.01
424.23 K | 57.64
445 K | 100.4

CC1CCCCC1=O (stereo unspecified) [2-methylcyclohexanone]
Conditions | vapor or sublimation pressure [kPa]
338.76 K | 3.333
342.2 K | 3.912
348.85 K | 5.267
350.96 K | 5.763
353.34 K | 6.401
355.93 K | 7.129
358.53 K | 7.941
360.73 K | 8.678
363.09 K | 9.543
366.66 K | 10.98
369.65 K | 12.3
372.7 K | 13.79
376.36 K | 15.79
381.72 K | 19.12
384.91 K | 21.37
389.42 K | 24.9
394.59 K | 29.53
398.32 K | 33.29
399.98 K | 35.05
408.17 K | 45.03
411.64 K | 49.98
414 K | 53.52
418.28 K | 60.46
436.94 K | 99.71

CCCCCC=O [hexanal]
Conditions | vapor or sublimation pressure [kPa]
322.27 K | 5.184
325.43 K | 6.001
327.84 K | 6.711
330.22 K | 7.51
333.56 K | 8.713
338.89 K | 10.99
342.12 K | 12.59
347.22 K | 15.55
353.44 K | 19.8
360.11 K | 25.45
366.28 K | 31.91
371.95 K | 38.88
377.98 K | 47.56
402.17 K | 99.72
